Experimental data: patent US20150148235A1, “HERBICIDE-RESISTANT SUNFLOWER PLANTS WITH MULTIPLE HERBICIDE RESISTANT ALLELES OF AHASL1 AND METHODS OF USE” (NIDERA S.A., priority 2013, published 2015)
Marks after values point to notes of the source that are not given here.

Test system: sunflower lines and hybrids carrying A122T and/or A205V AHASL1 alleles
Test: Greenhouse whole-plant response to imazapyr doses (height, Phytotoxicity Index, dry biomass), Example 2
Format: in vivo, Helianthus annuus
Conditions: 14 DAT; for Biomass weight reduction: heterozygous A122T/A205V
Procedure: Seeds were sown in Petri dishes and, after germination, plantlets were transplanted to pots of 10 cm of diameter in a potting media consisting of equal parts of vermiculite, soil and sand. Plants were grown in a greenhouse under natural light conditions supplemented with 400 W sodium halide lamps to provide a 16 hr daylength. Day/night temperatures were 25 and 20° C., respectively. At the V2-V4 stage (Schneiter & Miller (1981) Crop Sci. 21:901-903) 10 plants of each genotype were randomly assigned to each treatment consisting of eight imazapyr doses (0, 40, 80, 160, 240, 320, 400 and 480 g ai/ha, corresponding to untreated, 0.5×, 1×, 2×, 3×, 4×, 5× and 6×, respectively), and a zero-time biomass determination. Experiment was arranged as a randomized block design with a full factorial (sunflower line×treatment) arrangement of treatments and 10 replications.
On the day of herbicide application ten plants of each genotype were cut at the cotyledonal node and dried at 60° C. for 48 hrs for zero-time dried weight determination.
The remaining plants were maintained for 14 days after imazapyr treatment (DAT) and their height, Phytotoxicity Index (PI) and above ground dry biomass were determined Height was determined as the distance between the cotyledonal node and the apex of each plant. Above ground biomass data from each line were converted to biomass accumulation after application by subtracting the appropriate average zero-time biomass from each sample. Dry biomass data were converted to percentages of the untreated control plants within each line to allow direct comparisons between groups.

[1] = H4 (A122T/A205V hybrid), 4x=320 g ai/ha
[2] = L1 (A205V line), 0.5x=40 g ai/ha
[3] = L1 (A205V line), 3x=240 g ai/ha
[4] = L2 (A205V line), 5x=400 g ai/ha
[5] = L3 (cmsGM40, A122T line), 2x=160 g ai/ha
[6] = L3 (cmsGM40, A122T line), 4x=320 g ai/ha
[7] = L4 (A122T line), 0.5x=40 g ai/ha
[8] = L4 (A122T line), 2x=160 g ai/ha
[9] = L4 (A122T line), 3x=240 g ai/ha
[10] = L5 (WT susceptible), 1x=80 g ai/ha
[11] = L5 (WT susceptible), 2x=160 g ai/ha
[12] = L5 (WT susceptible), 3x=240 g ai/ha
[13] = L5 (WT susceptible), 4x=320 g ai/ha
[14] = L5 (WT susceptible), 5x=400 g ai/ha
[15] = L5 (WT susceptible), 6x=480 g ai/ha
[16] = mean of A122T genotypes (H2,L3,L4), 2x=160 g ai/ha
[17] = mean of A122T genotypes (H2,L3,L4), 3x=240 g ai/ha

## CC(C)C1(C)N=C(c2ncccc2C(=O)O)NC1=O (stereo not drawn) [imazapyr]
[1]
  biomass accumulation (dry): 85.0 % of untreated
  plant height: 95.0 % of untreated
H4 (A122T/A205V hybrid), 5x=400 g ai/ha
  Phytotoxicity Index (scale 0-9): 0.2
H4 (A122T/A205V hybrid), 6x=480 g ai/ha
  Phytotoxicity Index (scale 0-9): 0.0
[2]
  Phytotoxicity Index (scale 0-9): 0
  plant height: 100.0 % of untreated
L1 (A205V line), 1x=80 g ai/ha
  Phytotoxicity Index (scale 0-9): 0
  plant height: 100.0 % of untreated
L1 (A205V line), 2x=160 g ai/ha
  Phytotoxicity Index (scale 0-9): 1.6
[3]
  Phytotoxicity Index (scale 0-9): 5.1
  plant height: 50.0 % of untreated
L1 (A205V line), 4x=320 g ai/ha
  Phytotoxicity Index (scale 0-9): 8.4
L1 (A205V line), 5x=400 g ai/ha
  Phytotoxicity Index (scale 0-9): 8.9
L1 (A205V line), 6x=480 g ai/ha
  Phytotoxicity Index (scale 0-9): 8.9
L2 (A205V line), 0.5x=40 g ai/ha
  Phytotoxicity Index (scale 0-9): 0
L2 (A205V line), 1x=80 g ai/ha
  Phytotoxicity Index (scale 0-9): 0
  biomass accumulation (dry): 85.0 % of untreated
L2 (A205V line), 2x=160 g ai/ha
  Phytotoxicity Index (scale 0-9): 3.1
L2 (A205V line), 3x=240 g ai/ha
  Phytotoxicity Index (scale 0-9): 3.9
L2 (A205V line), 4x=320 g ai/ha
  Phytotoxicity Index (scale 0-9): 5.9
[4]
  Phytotoxicity Index (scale 0-9): 6.9
  plant height: 26.0 % of untreated
L2 (A205V line), 6x=480 g ai/ha
  Phytotoxicity Index (scale 0-9): 6.7
L3 (cmsGM40, A122T line), 0.5x=40 g ai/ha
  Phytotoxicity Index (scale 0-9): 0.4
L3 (cmsGM40, A122T line), 1x=80 g ai/ha
  Phytotoxicity Index (scale 0-9): 0.4
[5]
  Phytotoxicity Index (scale 0-9): 0.4
  plant height: 92.0 % of untreated
L3 (cmsGM40, A122T line), 3x=240 g ai/ha
  Phytotoxicity Index (scale 0-9): 0.5
[6]
  Phytotoxicity Index (scale 0-9): 1.0
  biomass accumulation (dry): 75.0 % of untreated
L3 (cmsGM40, A122T line), 5x=400 g ai/ha
  Phytotoxicity Index (scale 0-9): 2.0
L3 (cmsGM40, A122T line), 6x=480 g ai/ha
  Phytotoxicity Index (scale 0-9): 2.5
[7]
  Phytotoxicity Index (scale 0-9): 0.0
  biomass accumulation (dry): 100.0 % of untreated
  plant height: 100.0 % of untreated
L4 (A122T line), 1x=80 g ai/ha
  Phytotoxicity Index (scale 0-9): 0.0
  plant height: 100.0 % of untreated
[8]
  Phytotoxicity Index (scale 0-9): 0.0
  biomass accumulation (dry): 97.0 % of untreated
[9]
  Phytotoxicity Index (scale 0-9): 0.0
  plant height: 97.0 % of untreated
L4 (A122T line), 4x=320 g ai/ha
  Phytotoxicity Index (scale 0-9): 0.0
L4 (A122T line), 5x=400 g ai/ha
  Phytotoxicity Index (scale 0-9): 0.0
L4 (A122T line), 6x=480 g ai/ha
  Phytotoxicity Index (scale 0-9): 0.5
L5 (WT susceptible), 0.5x=40 g ai/ha
  Phytotoxicity Index (scale 0-9): 9
[10]
  Phytotoxicity Index (scale 0-9): 9
  biomass accumulation (dry): 15.0 % of untreated
[11]
  Phytotoxicity Index (scale 0-9): 9
  biomass accumulation (dry): 15.0 % of untreated
[12]
  Phytotoxicity Index (scale 0-9): 9
  biomass accumulation (dry): 15.0 % of untreated
[13]
  Phytotoxicity Index (scale 0-9): 9
  biomass accumulation (dry): 15.0 % of untreated
[14]
  Phytotoxicity Index (scale 0-9): 9
  biomass accumulation (dry): 15.0 % of untreated
[15]
  Phytotoxicity Index (scale 0-9): 9
  biomass accumulation (dry): 15.0 % of untreated
Heterozygotes A122T/A205V, 0.5x
  Height reduction: 0.6%
0.5x
  Biomass weight reduction: 0.3%
6x
  Biomass weight reduction: 33%
Mean of A122T genotypes (H2,L3,L4), 0.5x=40 g ai/ha
  Phytotoxicity Index (scale 0-9): 0.3
Mean of A122T genotypes (H2,L3,L4), 1x=80 g ai/ha
  Phytotoxicity Index (scale 0-9): 0.3
[16]
  Phytotoxicity Index (scale 0-9): 0.3
  plant height: 98.0 % of untreated
[17]
  Phytotoxicity Index (scale 0-9): 0.3
  biomass accumulation (dry): 90.0** % of untreated
Mean of A122T genotypes (H2,L3,L4), 4x=320 g ai/ha
  Phytotoxicity Index (scale 0-9): 0.5
Mean of A122T genotypes (H2,L3,L4), 5x=400 g ai/ha
  Phytotoxicity Index (scale 0-9): 0.8
Mean of A122T genotypes (H2,L3,L4), 6x=480 g ai/ha
  Phytotoxicity Index (scale 0-9): 1.2
Mean of A122T/A205V genotypes (H3,H4), 0.5x=40 g ai/ha
  Phytotoxicity Index (scale 0-9): 0.5
Mean of A122T/A205V genotypes (H3,H4), 1x=80 g ai/ha
  Phytotoxicity Index (scale 0-9): 0.5
Mean of A122T/A205V genotypes (H3,H4), 2x=160 g ai/ha
  Phytotoxicity Index (scale 0-9): 0.5
Mean of A122T/A205V genotypes (H3,H4), 3x=240 g ai/ha
  Phytotoxicity Index (scale 0-9): 0.5
Mean of A122T/A205V genotypes (H3,H4), 4x=320 g ai/ha
  Phytotoxicity Index (scale 0-9): 0.5
Mean of A122T/A205V genotypes (H3,H4), 5x=400 g ai/ha
  Phytotoxicity Index (scale 0-9): 0.6
Mean of A122T/A205V genotypes (H3,H4), 6x=480 g ai/ha
  Phytotoxicity Index (scale 0-9): 1
Mean of A205V genotypes (H1,L1,L2), 2x=160 g ai/ha
  Phytotoxicity Index (scale 0-9): 2.2*
Mean of A205V genotypes (H1,L1,L2), 3x=240 g ai/ha
  Phytotoxicity Index (scale 0-9): 5.1**
Mean of A205V genotypes (H1,L1,L2), 4x=320 g ai/ha
  Phytotoxicity Index (scale 0-9): 7.4**
Mean of A205V genotypes (H1,L1,L2), 5x=400 g ai/ha
  Phytotoxicity Index (scale 0-9): 8.2**
Mean of A205V genotypes (H1,L1,L2), 6x=480 g ai/ha
  Phytotoxicity Index (scale 0-9): 8.2**
